Results on 16 molecules are retold here after patent US6740644B2, “Chemical compounds” (Smithkline Beecham Corporation, priority 1997, dated 2004).

For data set [1], the target named is T1, A3 receptor (Homo sapiens, UniProt P0DMS8).
T1 sequence (P0DMS8 1-318): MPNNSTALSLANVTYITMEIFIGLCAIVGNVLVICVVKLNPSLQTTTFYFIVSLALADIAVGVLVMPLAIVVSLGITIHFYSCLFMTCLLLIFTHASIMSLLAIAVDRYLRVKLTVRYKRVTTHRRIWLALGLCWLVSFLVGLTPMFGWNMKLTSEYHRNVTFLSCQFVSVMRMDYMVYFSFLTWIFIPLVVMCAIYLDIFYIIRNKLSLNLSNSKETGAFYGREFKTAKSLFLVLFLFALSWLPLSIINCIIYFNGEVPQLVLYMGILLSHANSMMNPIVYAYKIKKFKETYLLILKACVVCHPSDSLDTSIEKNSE
Put plainly: Reporter gene experiments: A3 receptor gene assay, ECR relative to NECA. The conditions noted are these: ECR = concentration ratio relative to NECA = 1.

The target of data set [2] is T2, human adenosine A1 receptor (Homo sapiens, UniProt P30542).
T2 construct: expressed in transfected cells; host or cells: Chinese hamster ovary (CHO) cells containing the CRE/SPAP/HYG reporter gene
T2 sequence (P30542 1-326): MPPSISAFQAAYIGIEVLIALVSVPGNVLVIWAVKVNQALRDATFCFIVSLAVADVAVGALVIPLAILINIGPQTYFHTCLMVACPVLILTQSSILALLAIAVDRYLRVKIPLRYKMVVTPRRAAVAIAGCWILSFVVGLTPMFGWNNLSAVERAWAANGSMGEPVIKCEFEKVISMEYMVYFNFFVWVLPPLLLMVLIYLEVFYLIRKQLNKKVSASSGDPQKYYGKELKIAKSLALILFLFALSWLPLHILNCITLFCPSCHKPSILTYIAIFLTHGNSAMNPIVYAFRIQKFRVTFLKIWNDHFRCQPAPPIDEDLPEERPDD
Put plainly: Reporter gene experiments: inhibition of forskolin-stimulated SPAP production in CHO cells (CRE/SPAP/HYG), A1. It counts as cell-based. The following applies: ECR = concentration ratio relative to NECA = 1, CHO cells co-expressing human adenosine A1 receptor. The procedure:
Reporter Gene Experiments
Agonist activity was measured in Chinese hamster ovary (CHO) cells containing the CRE/SPAP/HYG (CRE=cyclic AMP response element; HYG=hygromycin; SPAP=secreted placental alkaline phosphatase) reporter gene, which upon stimulation of cAMP levels produced SPAP. A cell line was used, which stably co-expresses the human adenosine A1 receptor. Cells were plated out in 96-well plates in culture medium and incubated at 37° C. for 1 hour. […] All cells were then incubated for a further 5 hours at 37° C., and cooled to room temperature, after which a substrate for the phosphatase (para-nitrophenol phosphate,pNPP), which is broken down to a coloured reagent) was then added and the 96-well plates are read in a plate reader. From these readings, the concentration-dependence of the inhibition by the agonist of forskolin-stimulated SPAP production, can be calculated.

A value given as a limit tells only on which side of the number the result lay.

`COC[C@H]1O[C@@H](n2cnc3c(N[C@@H]4C[C@@H]5CC[C@H]4C5)ncnc32)[C@H](O)[C@@H]1O` (relative stereo) [Example 22, N-rel-[(1S,4R)-Bicyclo[2.2.1]hept-2R-yl]-5′-O-methyl-adenosine]: the “A3 Receptor Gene Assay ECR” value in data set [1] was 112.
Same read-out and setting: next, `COC[C@H]1O[C@@H](n2cnc3c(N[C@@H]4CCOC4)ncnc32)[C@H](O)[C@@H]1O` [Example 1, 5′-O-Methyl-N-(tetrahydro-furan-3R-yl)-adenosine]: above 129.
For the molecule `COC[C@H]1O[C@@H](n2cnc3c(NC4CCOCC4)ncnc32)[C@H](O)[C@@H]1O` [Example 2, 5′-O-Methyl-N-(tetrahydro-pyran-4-yl)-adenosine], the melting point is 133 to 134 °C. Moreover, the “A1 Receptor Gene Assay ECR” value in data set [2] amounted to 3.30. In addition, the “A3 Receptor Gene Assay ECR” value in data set [1] is 180.
In the case of `COC[C@H]1O[C@@H](n2cnc3c(N[C@H]4CCC[C@@H]4OC)ncnc32)[C@H](O)[C@@H]1O` [Example 3, N-(2S-Methoxy-(S)-cyclopentyl)-5′-O-methyl-adenosine], the “A3 Receptor Gene Assay ECR” value in data set [1] is reported as 204.
As to `COC[C@H]1O[C@@H](n2cnc3c(N[C@@H]4CCO[C@H]4C)ncnc32)[C@H](O)[C@@H]1O` [Example 4, 5′-O-Methyl-N-(2S-methyl-tetrahydro-furan-3R-yl)-adenosine], the “A3 Receptor Gene Assay ECR” value in data set [1] turned out to be 338.
`COC[C@H]1O[C@@H](n2cnc3c(Nc4ccc(O)c(Cl)c4)ncnc32)[C@H](O)[C@@H]1O` [Example 5, N-(3-Chloro-4-hydroxy-phenyl)-5′-O-methyl-adenosine]: the melting point is 225 to 230 °C. Also, in data set [2], the “A1 Receptor Gene Assay ECR” value stood at 6.21. In addition, the “A3 Receptor Gene Assay ECR” value in data set [1] was above 116.
In the case of `COC[C@H]1O[C@@H](n2cnc3c(N[C@H](C)Cc4ccccc4)ncnc32)[C@H](O)[C@@H]1O` [Example 6, 5′-O-Methyl-N-(1R-methyl-2-phenyl-ethyl)-adenosine], the “A1 Receptor Gene Assay ECR” value in data set [2] was 1.27. Besides, in data set [1], the “A3 Receptor Gene Assay ECR” value was 5.00.
For `COC[C@H]1O[C@@H](n2cnc3c(N[C@H](C)CO)ncnc32)[C@H](O)[C@@H]1O` [Example 14, N-(2-Hydroxy-1R-methyl-ethyl)-5′-O-methyl-adenosine], the melting point lay within 232 to 233 °C.
`COC[C@H]1O[C@@H](n2cnc3c(N[C@@H]4CCC[C@H]4O)ncnc32)[C@H](O)[C@@H]1O` [Example 17, N-(2R-Hydroxy-(R)-cyclopentyl)-5′-O-methyl-adenosine]: the melting point lay in the range of 202 to 204 °C. In addition, the “A1 Receptor Gene Assay ECR” value in data set [2] was 3.90. Further, in data set [1], the “A3 Receptor Gene Assay ECR” value is 57.3.
`COC[C@H]1O[C@@H](n2cnc3c(NC(C)(C)C)ncnc32)[C@H](O)[C@@H]1O` [Example 19, N-tert-Butyl-5′-O-methyl-adenosine]: the “A1 Receptor Gene Assay ECR” value in data set [2] worked out at 1.62. The “A3 Receptor Gene Assay ECR” value in data set [1] is reported as above 243.
As to `COC[C@H]1O[C@@H](n2cnc3c(N[C@H]4CCC[C@@H]4F)ncnc32)[C@H](O)[C@@H]1O` [Example 20, N-(2S-Fluoro-(S)-cyclopentyl)-5′-O-methyl-adenosine], the “A3 Receptor Gene Assay ECR” value in data set [1] is recorded as 54.8.
In the case of `CCOC(=O)N1CCC(Nc2ncnc3c2ncn3[C@@H]2O[C@H](COC)[C@@H](O)[C@H]2O)CC1` [Example 23, 4-[9-(3R,4S-Dihydroxy-5R-methoxymethyl-tetrahydro-furan-2R-yl)-9H-purin-6-ylamino]-piperidine-1-carboxylic acid ethyl ester], the “A1 Receptor Gene Assay ECR” value in data set [2] is recorded as 2.20. Further, the “A3 Receptor Gene Assay ECR” value in data set [1] stood at 162.
Taken in the same sequence, the figures for `CNS(=O)(=O)CCNc1nc(C)nc2c1ncn2[C@@H]1O[C@H](COC)[C@@H](O)[C@H]1O` [Example 25, 2-[9-(3R,4S-Dihydroxy-5R-methoxymethyl-tetrahydro-furan-2R-yl)-2-methyl-9H-purin-6-ylamino]-ethanesulfonic acid methylamide] were 1.67 and above 288.
On to `COC[C@H]1O[C@@H](n2cnc3c(NC4CCCC4)nc(C)nc32)[C@H](O)[C@@H]1O` [Example 27, N-Cyclopentyl-2-methyl-5′-O-methyl-adenosine], for which the “A1 Receptor Gene Assay ECR” value in data set [2] was found to be 3.02. In data set [1], the “A3 Receptor Gene Assay ECR” value was above 263.
With `COC[C@H]1O[C@@H](n2cnc3c(NCC4CC4)nc(C)nc32)[C@H](O)[C@@H]1O` [Example 28, N-Cyclopropylmethyl-2-methyl-5′-O-methyl-adenosine], the “A1 Receptor Gene Assay ECR” value in data set [2] came to 8.07. In data set [1], the “A3 Receptor Gene Assay ECR” value is listed as above 99.
Regarding “N-(2,3-Dihydroxy-propylamino)-5′-O-methyl-adenosine [Example 21]”, the “A3 Receptor Gene Assay ECR” value in data set [1] worked out at 135.
